Values joined by “and” are separate entries in the source; they are usually repeats but may differ in a detail not shown here. Identical values can stand only once.
What was measured:
ovariectomised rats [1] = assay: Hot flush model: tail skin temperature after naloxone withdrawal in morphine-addicted ovariectomised rats; assay type: in vivo, rat; conditions: vehicle rats 5-6° C. elevation
Description: (§1) Virgin adult cycling Sprague-Dawley rats weighing 300-350 g (Example 4) and 190-210 g (Example 5) and with regular 4-day oestrous cycles were used (Möllegaard, Denmark). The rats were housed 4 to each cage with free access to pelleted food and tap water at 22° C. and with a 12 h light/12 h dark cycle for at least 1 week before and throughout the experimental period.
In this study, ovariectomised rats (300-350 g) were treated with oxytocin for 8 days subcutaneously. Rats were addicted to morphine by implanting a morphine pellet (75 mg each) subcutaneously on days 3 and 5 of treatment. On the last day of treatment, an infrared thermistor was placed above the tail of each animal and morphine addiction was withdrawn by naloxone injection (1.0 mg/kg, subcutaneously). Temperature measurements were taken for 1 h under ketamine (80 mg/kg. intramuscularly) anaesthesia.

ovariectomised rats [2] = assay: Weight change in ovariectomised rats given subcutaneous oxytocin; assay type: in vivo, rat
Description: (§2) Female sexually mature Sprague-Dawley rats weighing 250-300 g were used (B & K Universal Sollentuna, Sweden). The rats were housed 5 to each cage with free access to food and tap water at 20±2° C. and with a 12 h light/12 h dark cycle for at least 3 weeks before and throughout the experimental period.
A rat having its ovaries removed also gains weight compared to untreated rats.

ovariectomised rats [3] = assay: Subcutaneous oxytocin combined with hormone treatment in ovariectomised rats, plasma corticosterone and GH; assay type: in vivo, rat; conditions: oxytocin 1 mg/kg s.c. five days, FIG. 2
Excerpt: FIG. 2 is a bar graph showing the plasma concentrations of corticosterone and growth hormone (GH) in ovariectomised rats subjected to subcutaneous treatment. Group A refers to rats treated with oestrogen, progesterone, and oxytocin. Group B refers to rats treated with oestragen and progesterone. Group C refers to rats treated with oxytocin. Group D refers to rats treated with saline.
as §2
In another experimental animal study, the effect of oxytocin (1 mg/kg given subcutaneously during five days) combined with hormone treatment was investigated. All treatment groups A-D each contained eight ovariectomised rats. […] Analogously to the insulin levels, the corticosterone and GH levels were normalised (but increased) by oxytocin treatment.

ovariectomised rats [4] = assay: Forward locomotion of ovariectomised rats after intravaginal oxytocin gel; assay type: in vivo, rat; set-up: forward locomotion, Minutes 1-15 / forward locomotion, Minutes 16-30 / forward locomotion, Minutes 1-30 / forward locomotion, Minutes 1-15, AVERAGE / forward locomotion, Minutes 16-30, AVERAGE / forward locomotion, Minutes 1-30, AVERAGE: unit not given here
Description: as §2
The ovaries of seven female rats were removed. After 2 weeks, the rats were treated with oxytocin gel given intravaginally (conc. 1 mg/ml). […] Most probably, there is an activation of nerves present in the vaginal mucous membrane.
The total experimental time is 30 minutes per rat, and the values in table I show the forward locomotion for the first 15 minutes, for the whole experimental time, and for the last 15 minutes.

ovariectomised rats [5] = assay: Subcutaneous oxytocin administration to ovariectomised rats, endocrine study; assay type: in vivo, rat; conditions: 1 mg/kg subcutaneously during five days
Description: as §2
Ovariectomy means removal of an ovary or ovaries and can eg be effected according to Merchentaler, I., Funkhouser, J. M., Carver, J. N, Lundeen, S. G., Ghosh, K, Winneker, R. C. The effect of estrogens and antiestrogens in a rat model for hot flush. Maturitas, Nov 16, 1998; 30(3): 307-316.
In an experimental animal study, eight ovariectomised rats were treated with oxytocin. The ovaries were removed in order to create a menopause-like situation. After a mouth, an endocrine study was made. The “menopausal” rats get a changed hormone balance. Their insulin levels and, to a certain extent their blood sugar levels rise, possibly in consequence of increased insulin resistance. Their cortisol and growth hormone levels decrease, which expresses an inability to mobilise calories for activity. An oxytocin treatment during five days (1 mg/kg given subcutaneously during five days) restored the hormone balance.

ovariectomized rats = assay: Bone loss in ovariectomized rats, densitometric and morphometric studies; assay type: in vivo, rat
Description: Four lots of 120-day-old female Wistar rats (mean±SD initial weight 273±28 g) were used. The rats were randomized into groups based on their body weight. […] Sample size was calculated in a pilot study after determining the variability of densitometric measurements.
All rats were fed standard chow feed containing 7.1 g/kg of calcium and 5 g/kg of phosphorus; the energy content of the feed was 3100 kcal/kg. A control group of 15 rats were not manipulated but fed the stud diet (control group, mean initial weight 269±31 g). A experimental group of 15 rats was ovariectomized at 120 days of life and given oxytocin for 10 days 1.0 mg/kg sc. (OVX+Oxy group, mean initial weight 277±32 g). A group of 15 rats underwent ovariectomy (OVX group, mean initial weight 282±27 g). […] The ovariectomy was performed as in previous studies [Rico H, Amo C, Revilla M, Arribas I, Gonzalez-Riola J, Villa L F, Rodriguez-Puyol M Etidronate versus Clodronate in the prevention of postovariectomy bone loss. An experimental study in rats. Clin Exp Rheumatol 1994, 12:301-304]. The manipulated rats were controlled to observe the development of intestinal function, alterations, and infection or dehiscence of surgical sutures. All rats received water ad libitum. The rats were kept for 30 days in the animal laboratory of department of Physiology and Pharmacology, Karolinska Institutet Living conditions (12 hours of light and 12 hours of darkness; mean room temperature 22° C.), habitat, and diet met current guidelines of the European Union. Weight was measured with a precision biomedical balance.
Densitometric and Morphometric Studies. After 30 days, all rats were anesthetized and killed by exsanguination from the abdominal aorta after being anesthetized with 4 mg/100 g body weight of sodium pentothal. The femur and 5th lumbar vertebra of rat were dissected and placed in an 85° C. water bath to remove soft tissue. Femoral length and vertebral height were measured with a caliper and bones were weighed on a precision balance. The BMC and BMD of the whole right femur and 5th lumbar vertebra were measured using a desitometer equipped with a special program for studying small […] and samples. The instrument was calibrated daily. Because of the influence of weight on bone mass in rate [Rico H, Amo C, Revilla M, Arribas I, Gonzalez-Riola J, Villa L F, Rodriguez-Puyol M Etidronate versus Clodronate in the prevention of postovariectomy bone loss. An experimental study in rats. Clin Exp Rheumatol 1994, 12:301-304] and human beings [Rico H, Revilla M, Villa L F, Alvarez de Buergo M A, Ruiz-Contreras D Determinants of total and regional bone mineral content and density in postpubertal normal women. Metabolism 1994, 43 :263-266], BMC was corrected for final body weight (BMC/BW). The BMC and BMD of the femurs and 5th lumbar vertebra were measured separately.

[6] = system: women two years into menopause with vaginal rash, pain and dryness; assay: Double blind intravaginal oxytocin gel versus cellulose gel in 20 menopausal women, biopsy and interview; assay type: in vivo, human
Description: Besides, a further experiment was conducted, wherein 20 women, all of them at two years into menopause and otherwise healthy. None of them underwent hormone replacement therapy. All patients had objective and subjective symptoms of vaginal rash, pain and a feeling of dryness.
Ten patents were treated with oxytocin 1 mg/ml mixed with 1 ml close gel intravaginally during five consecutive days, whereas the remaining ten patients were treated with 1 ml cellulose gel intravaginally dog five consecutive days as control. Before treatment with either control or oxytocin gel we took a biopsy, this procedure was repeated after 5 days of treatment. The protocol was a double blind protocol, ie the microscopic evaluations were performed by the same experienced pathologist before the code was broken.

[7] = system: rats with experimentally-induced polycystic ovaries; assay: Oestradiol valerate induced polycystic ovaries (PCO) in rats, NGF and ovarian morphology; assay type: in vivo, rat; conditions: oxytocin 1.0 mg/kg subcutaneously every third day
Description: as §1
Statistical analyses were carried out using the SPSS 8.0 software. NGF concentrations in the pituitary gland, the hypothalamus, the hippocampus, the ovary, and the adrenal glands were analysed and the groups compared using analyses of variance (ANOVA) followed by multiple comparison procedures Bonferroni test).
All rats (totally 59) received a single intramuscular injection either of oestradiol valerate (EV), oil, or 0.15 M NaCl (Kabi Pharmacia AB, Sweden) and were anaesthetised with enflurane. Twenty rats re injected with 4 mg EV in 0.2 ml oil/rat (ten rats in the control group and ten in the oxytocin treated). They were decapitated after 30 days to elucidate when the ovaries display characteristic features of well-defined PCO (Brawer et al., 1978, Supra; Brawer et al., 1986, supra). The oxytocin treated group received subcutaneous oxytocin 1.0 mg/kg subcutaneously every third day during the experimental period.

[8] = system: postmenopausal women with atrophic, ulcerous vaginal mucous membranes; assay: Intravaginal oxytocin administration to postmenopausal women (seven women, inspection by gynaecologist); assay type: in vivo, human; conditions: oxytocin 1 mg/ml mixed with 1 ml cellulose gel intravaginally
Description: Seven women at an age of 60-70 years, otherwise completely healthy, with expressed postmenopausal disorders in the form of white, thin, atrophic, easy-bleeding and ulcerous vaginal mucous membranes were included in the study. They were treated with oxytocin 1 mg/ml mixed with 1 ml cellulose gel intravaginally driving five consecutive days,
The treatment was effected by a gynaecologist who inspected the mucous membranes. After a treatment lasting 2-3 days, the mucous membranes had improved in that they looked like those in a female woman.
At the same time, it was observed that the mood of the women was improved. They seemed obviously happy and reported that they felt happy, and many of them had resumed their sex lives.

ovariectomised rats [9] = assay: Tail-flick test in ovariectomised rats after intravaginal oxytocin; assay type: in vivo, rat; conditions: tails in water at 51° C.; intravaginal oxytocin versus saline; FIG. 4
Description: One way of applying somatic discomfort to an organism is to subject a part of it to a high temperature. This relief effect of oxytocin was investigated in a tail-flick test. In this test the tails of ovariectomised rats were immersed in water at 51° C. With reference to FIG. 4, the latency time from the immersion of the tails to the withdrawal thereof were measured for rats treated with oxytocin (▴) and rats treated with saline (□). For each group of rats, the test sessions were accomplished three times with a period of 15 minutes between the sessions. […] A longer latency time means that the rat could stand the somatic discomfort better such as increased temperature ta it otherwise would do.

[10] = individual rats R1-R7, oxytocin gel 1 mg/ml intravaginally
[11] = ovariectomized rats, oxytocin 1.0 mg/kg sc for 10 days, after 30 days, mean ± SD

C#C[C@]1(O)CC[C@H]2[C@@H]3CCc4cc(O)ccc4[C@H]3CC[C@@]21C [17-alpha-ethinyloestradiol]
tail skin temperature increase (flashes) after naloxone (ovariectomised rats [1]; 0.1 m g subcutaneous): significantly inhibited

oxytocin
food intake (ovariectomised rats [2]; oxytocin for 10 days): do not eat less | weight gain after ovariectomy (ovariectomised rats [2]; oxytocin for 10 days subcutaneously, versus saline controls, FIG. 3): do not gain weight as much | plasma GH levels (ovariectomised rats [3]; compared with saline treated rats, eight rats per group): significantly higher | plasma corticosterone levels (ovariectomised rats [3]; compared with rats treated with oestrogen+progesterone): significantly higher | tail skin temperature increase (flashes) after naloxone (ovariectomised rats [1]; repeated oxytocin 1.0 mg/kg subcutaneous for 8 days): significantly inhibited | forward locomotion, Minutes 1-30, AVERAGE (ovariectomised rats [4]; average of 7 rats (SD 1.36), control average 24.71, T-test 0.03*): 26.91 | forward locomotion, Minutes 1-15, AVERAGE (ovariectomised rats [4]; average of 7 rats (SD 1.81), control average 27.10, T-test 0.04*): 30.20 | forward locomotion, Minutes 16-30, AVERAGE (ovariectomised rats [4]; average of 7 rats (SD 2.86), control average 18.33, T-test 0,44 ns): 20.13 | forward locomotion, Minutes 1-30 (ovariectomised rats [4]; [10]): 27.7 (2×) and 25.3 and 25.1 and 26.3 and 28.7 and 27.6 | forward locomotion, Minutes 16-30 (ovariectomised rats [4]; [10]): 20.3 and 19.8 and 17.7 and 23.2 and 21.6 and 15.3 and 23 | forward locomotion, Minutes 1-15 (ovariectomised rats [4]; individual rats R1-R7, oxytocin gel 1 mg/ml intravaginally, two days after completed treatment): 30.7 and 27.8 and 28.8 and 28.6 and 32.2 and 32.3 and 31 | behaviour changes (motor activity such as forward locomotion) (ovariectomised rats [4]; two days after completed intravaginal treatment, compared to gel without oxytocin): increased motor activity | blood sugar levels (ovariectomised rats [5]; compared to NaCl controls): normalised | plasma insulin levels (ovariectomised rats [5]; compared to control rats treated with NaCl, FIG. 1): normalised ie lowered | F-BMC (femur bone mineral content) (ovariectomized rats; [11]): 335 ± 37 mg | F-BMC/BW (femur BMC corrected for final body weight) (ovariectomized rats; [11]): 1.12 ± 0.09 mg/g | F-BMD (femur bone mineral density) (ovariectomized rats; [11]): 131 ± 18 mg/cm^2 | Femur (femoral length) (ovariectomized rats; [11]): 35.5 ± 1.3 mm | Femur (weight) (ovariectomized rats; [11]): 712 ± 42 mg | V-BMC (5th lumbar vertebral bone mineral content) (ovariectomized rats; [11]): 110 ± 16 mg | V-BMD (5th lumbar vertebral bone mineral density) (ovariectomized rats; [11]): 107 ± 13 mg/cm^2 | Vertebra (5th lumbar vertebra weight) (ovariectomized rats; [11]): 273 ± 32 mg | Vertebra (5th lumbar vertebral height) (ovariectomized rats; [11]): 6.9 ± 0.6 mm | Final weight (ovariectomized rats; ovariectomized rats, oxytocin 1.0 mg/kg sc for 10 days, after 30 days, mean ± SD, 15 rats): 334 ± 31 g | bone loss in ovariectomized rats (ovariectomized rats; oxytocin treatment for 10 days): suppresses bone loss | inflammation in histology (biopsy) ([6]; after 5 days of treatment): no or a lesser degree of inflammation | histology of vaginal epithelium (biopsy) ([6]; after 5 days of treatment, except cases with normal epithelium before treatment): normalization of the epithelium | subjective relief in interviews ([6]; oxytocin 1 mg/ml in 1 ml gel intravaginally, five days, ten patients, versus cellulose gel control): expressed relief | concentrations of NGF in the ovaries ([7]; 30 days, compared to non-oxy-treated PCO rats): significantly lower | ovarian morphology (PCO changes) ([7]; versus EV control group): significantly less changes | mood of the women [8]: improved | treatment time until mucous membranes had improved [8]: 2 to 3 days | ulcers of vaginal mucous membranes ([8]; after 2-3 days): all ulcers had disappeared | state of vaginal mucous membranes on inspection ([8]; five consecutive days, seven women 60-70 years): improved | tail-flick latency time (immersion to withdrawal) (ovariectomised rats [9]): increases the latency time

Reference: patent US20040029787A1, “Use of substances with oxytocin activity against climacteric disorders” (priority 2000, published 2004)
